The text below walks through data of patent US10583111B2, “Method for preventing or treating diseases associated with the inhibition of EGFR” (priority 2017, dated 2020).

Structures are written as SMILES.

Experiment [1] has as its system intracellular NO level in HaCaT. In words: Effect of the EGFR inhibitor on the intracellular NO levels, HaCaT. Type of experiment: cell-based. The conditions noted are these: 20 μM, 12-24 hrs, cell lysate. How it is done:
(§1) The cultured HaCaT, HUVEC and hMSC were respectively digested, counted, and seeded into 6-well plates with 100,000-600,000 cells per well. After the cells were attached, the supernatant was discarded, and 1.5 mL of the EGFR inhibitor solution diluted to the final concentration as shown in Table 7 was added into the wells of the 6-well plates, wherein no additional solution was added to the blank control group, except the normal replacement of basic medium. After 12-24 hrs of addition of the EGFR inhibitor, the supernatant was discarded, while 100 μL of a cell lysis solution was added to the cells in the 6-well plates (specifically for the detection of nitric oxide, 53090, Beyotime Inc.). After 30 s of lysis, 50 μL cell lysis solution was taken. The NO level in the cell lysis solution was detected by using NO assay kit (S0021, Beyotime Inc.). GraphPad Prism 6.0 Software and t-test were used to carry out a statistic analysis of the results and plot a graph.

Experiment [2] relates to intracellular NO level in HUVEC. In words: Effect of the EGFR inhibitor on the intracellular NO levels, HUVEC. The conditions noted are these: 20 μM, 12-24 hrs, cell lysate. It is filed as cell-based, human. How it is done:
as §1

The test system of experiment [3] is intracellular NO level in hMSC. Kind of experiment: Effect of the EGFR inhibitor on the intracellular NO levels, hMSC. Conditions: hMSCs; 20 μM; 12-24 hrs; cell lysate. Type of experiment: cell-based. The procedure:
as §1

In experiment [4] the test system is skin cells HaCaT. Kind of experiment: Proliferative toxicity of EGFR inhibitor on skin cells HaCaT and ameliorating effect of nitric oxide releasing agents (CCK-8). It is filed as cell-based. The conditions noted are these: 48 hrs.
Experimental: The cultured skin cell HaCaT were digested, counted, and seeded in a 96-well plate with 5000-10000 cells per well. After the cells were attached, the supernatant was discarded. The wells were divided to the blank control group, the EGFR inhibitor group, the EGFR inhibitor+nitric oxide releasing agent group and the blank solvent control group. The EGFR inhibitor group: 100 μL of the EGFR inhibitor solution was added (the final concentration was shown in Table 2; Cetuximab was in an aqueous solution, besides which each of other EGFR inhibitors were in a solution containing DMSO); the EGFR inhibitor+nitric oxide releasing agent group: the EGFR inhibitor solution and the nitric oxide releasing agent solution were added (the final concentration of the EGFR inhibitor and nitric oxide releasing agent were shown in Table 2, and depending on the solubility of the nitric oxide releasing agent, the nitric oxide releasing agent solution was an ethanol solution or an aqueous solution); the blank control group: except the normal replacement of the medium, no additional solution was added; a plurality of blank solvent control groups: an equal volume of the same type of solvent as the corresponding EGFR inhibitor group or the EGFR inhibitor+nitric oxide releasing agent was added. […] After additional culture for 48 hrs, the survival rate of cells was measured by Cell Counting Kit-8 (CCK-8) assay kit (C0037, purchased from Shanghai Beyotime Biotechnology Inc.) to calculate the proliferative toxicity of the EGFR inhibitor to cells and the ameliorating effect of the nitric oxide releasing agent to the proliferative toxicity.
Experiment [5] relates to small intestine epithelial cells FHs 74 Int. Kind of experiment: Proliferative toxicity of EGFR inhibitor to small intestine epithelial cell FHs 74 Int and ameliorating effect of nitric oxide releasing agent (CCK-8). Conditions: one merged result for Erlotinib 10 μM, Afatinib 5 μM, Osimertinib 20 μM, agent 200 μM, 48 hrs. Type of experiment: cell-based.
Experimental: The cultured small intestine epithelial cells FHs 74 Int were digested, counted, and seeded to a 96-well plate with 5000-10000 cells per well. After the cells were attached, the supernatant was discarded. The wells were divided to the blank control group, the EGFR inhibitor group, the EGFR inhibitor+nitric oxide releasing agent group and blank solvent control group.
EGFR inhibitor group: 100 μL of the EGFR inhibitor solution was added (the final concentration was listed in Table 3, all the EGFR inhibitor solution are DMSO solution); the EGFR inhibitor+nitric oxide releasing agent group: the EGFR inhibitor solution and the nitric oxide releasing agent solution were added (the final concentrations of the EGFR inhibitor and the nitric oxide releasing agent were listed in Table 3, and depending on the solubility of the nitric oxide releasing agents, the nitric oxide releasing agent solution was ethanol solution or aqueous solution); the blank control group: except the normal replacement of medium, no additional solution was added; a plurality of blank solvent control group: an equal volume of the same type of solvent as the corresponding EGFR inhibitor group or the EGFR inhibitor+nitric oxide releasing agent group was added. […] After additional 48 hrs of culture, the survival rate of cells was determined by Cell Counting Kit-8 (CCK-8) assay kit (C0037, Shanghai Beyotime Biotechnology Inc., Beyotime Biotechnology), to calculate the proliferative toxicity of the EGFR inhibitor to cells and the ameliorating effect of the nitric oxide releasing agent to the proliferative toxicity. GraphPad Prism 6.0 Software and t-test were used to carry out a statistic analysis of the results and plot a graph.
Experiment [6] concerns Human Oral Keratinocytes (HOK). In words: Proliferative toxicity of EGFR inhibitor on Human Oral Keratinocytes (HOK) and ameliorating effect of nitric oxide releasing agent (CCK-8). Type of experiment: cell-based. The conditions noted are these: one merged result for Erlotinib 10 μM, Afatinib 5 μM, Osimertinib 20 μM, agent 200 μM, 48 hrs.
Experimental: The cultured Human Oral Keratinocytes (HOK) were digested, counted, and seeded to a 96-well plate with 5000-10000 cells per well. After the cells were attached, the supernatant was discarded. The wells were divided to the blank control group, the EGFR inhibitor group, the EGFR inhibitor+nitric oxide releasing agent group and blank solvent control group. EGFR inhibitor group: 100 μL of the EGFR inhibitor solution was added (the final concentration was listed in Table 4, all the EGFR inhibitor solution that are DMSO solution); the EGFR inhibitor+nitric oxide releasing agent group: the EGFR inhibitor solution and the nitric oxide releasing agent solution were added (the final concentrations of the EGFR inhibitor and the nitric oxide releasing agent were listed in Table 4, and depending on the solubility of the nitric oxide releasing agents, the nitric oxide releasing agent solution was ethanol solution or aqueous solution); the blank control group: except the normal replacement of medium, no additional solution was added; a plurality of blank solvent control group: an equal volume of the same type of solvent as the corresponding EGFR inhibitor group or the EGFR inhibitor+nitric oxide releasing agent group was added. […] After additional 48 hrs of culture, the survival rate of cells was determined by Cell Counting Kit-8 (CCK-8) assay kit (C0037, Shanghai Beyotime Biotechnology Inc., Beyotime Biotechnology), to calculate the proliferative toxicity of the EGFR inhibitor to cells and the ameliorating effect of the nitric oxide releasing agent to the proliferative toxicity. GraphPad Prism 6.0 Software and t-test were used to carry out a statistic analysis of the results and plot a graph.
The subject of experiment [7] is human foreskin fibroblasts (HFF). In words: Proliferative toxicity of EGFR inhibitor on HFF and ameliorating effect of nitric oxide releasing agent (CCK-8). Type of experiment: cell-based. Conditions: one merged result for Erlotinib 10 μM, Afatinib 5 μM, Osimertinib 20 μM, agent 200 μM, 48 hrs.
Experimental: The cultured human foreskin fibroblasts (HFF) were digested, counted, and seeded to a 96-well plate with 5000-10000 cells per well. After the cells were attached, the supernatant was discarded. The wells were divided to the blank control group, the EGFR inhibitor group, the EGFR inhibitor+nitric oxide releasing agent group and blank solvent control group. EGFR inhibitor group: 100 μL of the EGFR inhibitor solution was added (the final concentration was listed in Table 6, the EGFR inhibitor solutionare DMSO solution); the EGFR inhibitor+nitric oxide releasing agent group: the EGFR inhibitor solution and the nitric oxide releasing agent solution were added (the final concentrations of the EGFR inhibitor and the nitric oxide releasing agent were listed in Table 6, and depending on the solubility of the nitric oxide releasing agents, the nitric oxide releasing agent solution was ethanol solution or aqueous solution); the blank control group: except the normal replacement of medium, no additional solution was added; a plurality of blank solvent control group: an equal volume of the same type of solvent as the corresponding EGFR inhibitor group or the EGFR inhibitor+nitric oxide releasing agent group was added. […] After additional 48 hrs of culture, the survival rate of cells was determined by Cell Counting Kit-8 (CCK-8) assay kit (C0037, Shanghai Beyotime Biotechnology Inc., Beyotime Biotechnology), to calculate the proliferative toxicity of the EGFR inhibitor to cells and the ameliorating effect of the nitric oxide releasing agent to the proliferative toxicity. GraphPad Prism 6.0 Software and t-test were used to carry out a statistic analysis of the results and plot a graph.
The subject of experiment [8] is human umbilical vein endothelial cells (HUVEC). In words: Proliferative toxicity of EGFR inhibitor on HUVEC and ameliorating effect of nitric oxide releasing agent (CCK-8). It is filed as cell-based. Conditions: 48 hrs. The procedure: The cultured human umbilical vein endothelial cells (HUVECs) were digested, counted, and seeded to a 96-well plate with 5000-10000 cells per well. After the cells were attached, the supernatant was discarded. The wells were divided to the blank control group, the EGFR inhibitor group, the EGFR inhibitor+nitric oxide releasing agent group and blank solvent control group.
EGFR inhibitor group: 100 μL of the EGFR inhibitor solution was added (the final concentration was listed in Table 5, the EGFR inhibitor solution are DMSO solution); the EGFR inhibitor+nitric oxide releasing agent group: the EGFR inhibitor solution and the nitric oxide releasing agent solution were added (the final concentrations of the EGFR inhibitor and the nitric oxide releasing agent were listed in Table 5, and depending on the solubility of the nitric oxide releasing agents, the nitric oxide releasing agent solution was ethanol solution or aqueous solution); the blank control group: except the normal replacement of medium, no additional solution was added; a plurality of blank solvent control group: an equal volume of the same type of solvent solution as the corresponding EGFR inhibitor group or the EGFR inhibitor+nitric oxide releasing agent group was added. The blank solvent control group was used for data correction to eliminate the effect of solvent to the result in the EGFR inhibitor group and the EGFR inhibitor+nitric oxide releasing agent group. After additional 48 hrs of culture, the survival rate of cells was determined by Cell Counting Kit-8 (CCK-8) assay kit (C0037, Shanghai Beyotime Biotechnology Inc., Beyotime Biotechnology), to calculate the proliferative toxicity of the EGFR inhibitor to cells and the ameliorating effect of the nitric oxide releasing agent to the proliferative toxicity. GraphPad Prism 6.0 Software and t-test were used to carry out a statistic analysis of the results and plot a graph. […]

Setting [9] is: Afatinib 5 μM + nitric oxide releasing agent 200 μM.
The mark [10] stands for this setting: Cetuximab 100-200 μg/mL + nitric oxide releasing agent 200 μM.
The mark [11] stands for this setting: Erlotinib 10 μM + nitric oxide releasing agent 200 μM.
The mark [12] stands for this setting: Osimertinib 20 μM + nitric oxide releasing agent 200 μM.

As to `C#Cc1cccc(Nc2ncnc3cc(OCCOC)c(OCCOC)cc23)c1` [Erlotinib], the “NO Level: percentage of NO concentration decreased vs control group” value in experiment [1] is 28%; in experiment [2], 22%; in experiment [3], 30%.

Consider `CC(C)CCON=O` [Isoamyl nitrite, isoamyl nitrite], for which the “Cell Survival Rate: percentage of viable cells increased vs EGFR inhibitor group” value in experiment [4] (setting [9]) was “by 35-45%”; in experiment [4] (setting [10]) it was “by 35-45%”; in experiment [4] (setting [11]) it was “by 75-85%”; in experiment [4] (setting [12]), “by 35-45%”; in experiment [5], 25%-35%; in experiment [6], 25-35%. The “Cell Survival Rate: percentage of viable cells increased vs EGFR inhibitor group” value in experiment [7] is on record as 30-80%.

Take `CCOC(=O)[N-]c1cn(N2CCOCC2)n[o+]1` [Molsidomine]: the “Cell Survival Rate: percentage of viable cells increased vs EGFR inhibitor group” value is “by 35-45%” in experiment [4] (setting [9]); “by 75-85%” in experiment [4] (setting [11]); “by 35-45%” in experiment [4] (setting [12]); 15%-35% in experiment [5]; 20-30% in experiment [6]; 20-70% in experiment [7].

`NCCN(CCN)[N+]([O-])=NO` [NOC-18, 3,3-di (aminoethyl)-1-hydroxyl-2-carbonyl-1-triazene]: the “Cell Survival Rate: percentage of viable cells increased vs EGFR inhibitor group” value is “by 35-45%” in experiment [4] (setting [9]), “by 45-55%” in experiment [4] (setting [10]), “by 75-85%” in experiment [4] (setting [11]) and “by 25-35%” in experiment [4] (setting [12]).

For `O=C(NCCO[N+](=O)[O-])c1cccnc1` [Nicorandil, nicorandil], the “Cell Survival Rate: percentage of viable cells increased vs EGFR inhibitor group” value in experiment [4] (setting [9]) is on record as “by 65-75%”; in experiment [4] (setting [11]), “by 85-95%”; in experiment [4] (setting [12]) it was “by 30-40%”.

As to `O=[N+]([O-])OCC(CO[N+](=O)[O-])O[N+](=O)[O-]` [Nitroglycerin, nitroglycerin], the “Cell Survival Rate: percentage of viable cells increased vs EGFR inhibitor group” value was “by 85-95%” in experiment [4] (setting [9]); “by 55-65%” in experiment [4] (Canertinib 10 μM + nitric oxide releasing agent 200 μM); “by 35-45%” in experiment [4] (setting [10]); “by 65-75%” in experiment [4] (EAI045 20 μM + nitric oxide releasing agent 200 μM); “by 65-75%” in experiment [4] (setting [11]); “by 65-75%” in experiment [4] (Gefitinib 10 μM + nitric oxide releasing agent 200 μM). Besides, the “Cell Survival Rate: percentage of viable cells increased vs EGFR inhibitor group” value is reported as “by 65-75%” in experiment [4] (Icotinib 10 μM + nitric oxide releasing agent 200 μM); “by 55-65%” in experiment [4] (Lapatinib 10 μM + nitric oxide releasing agent 200 μM); “by 55-65%” in experiment [4] (Nazartinib 10 μM + nitric oxide releasing agent 200 μM); “by 65-75%” in experiment [4] (Neratinib 10 μM + nitric oxide releasing agent 200 μM); “by 35-45%” in experiment [4] (Olmutinib 10 μM + nitric oxide releasing agent 200 μM); “by 35-45%” in experiment [4] (setting [12]). Besides, the “Cell Survival Rate: percentage of viable cells increased vs EGFR inhibitor group” value is given as “by 55-65%” in experiment [4] (Poziotinib 10 μM + nitric oxide releasing agent 200 μM); “by 65-75%” in experiment [4] (Rociletinib 10 μM + nitric oxide releasing agent 200 μM); “by 55-65%” in experiment [4] (Sapitinib 10 μM + nitric oxide releasing agent 200 μM); “by 55-65%” in experiment [4] (Vandetanib 10 μM + nitric oxide releasing agent 200 μM); “by 35-45%” in experiment [4] (Varlitinib 10 μM + nitric oxide releasing agent 200 μM); 15%-35% in experiment [5]. Also, the “Cell Survival Rate: percentage of viable cells increased vs EGFR inhibitor group” value in experiment [6] is on record as 20-30%; in experiment [8] (Afatinib 5 μM + agent 200 μM), 15-20%; in experiment [8] (Erlotinib 10 μM + agent 200 μM), 20-30%; in experiment [8] (Osimertinib 20 μM + agent 200 μM), 90-100%; in experiment [7], 30-90%.
